Data published in ChEMBL document CHEMBL4507276 (2021).

Experiments:
[1] = target: GABA-A receptor; anion channel (Rattus norvegicus) (UniProt O09028+P15431+P18506+P18508+P19969+P20236+P23574+P23576+P28471+P28473+P30191+P62813+P63079+P63138+Q91ZM7+Q9ES14); conditions: Compound concentration 10.0 uM
[2] = target: Tyrosine-protein kinase ABL1 (Homo sapiens) (UniProt P00519); conditions: Compound concentration 1000.0 nM
[3] = target: Mitogen-activated protein kinase kinase kinase 14 (Homo sapiens) (UniProt Q99558); conditions: Compound concentration 1000.0 nM
[4] = target: Histamine H3 receptor (Homo sapiens) (UniProt Q9Y5N1); test: H3/NAMEH_H Cerep selectivity data (BI); conditions: filed as antagonist, Compound concentration 20.0 uM
[5] = target: T1, cGMP-dependent protein kinase 2 (Homo sapiens) (UniProt Q13237); test: PRKG2 Invitrogen selectivity data (BI); conditions: Compound concentration 3.0 uM
T1 sequence (whole entry): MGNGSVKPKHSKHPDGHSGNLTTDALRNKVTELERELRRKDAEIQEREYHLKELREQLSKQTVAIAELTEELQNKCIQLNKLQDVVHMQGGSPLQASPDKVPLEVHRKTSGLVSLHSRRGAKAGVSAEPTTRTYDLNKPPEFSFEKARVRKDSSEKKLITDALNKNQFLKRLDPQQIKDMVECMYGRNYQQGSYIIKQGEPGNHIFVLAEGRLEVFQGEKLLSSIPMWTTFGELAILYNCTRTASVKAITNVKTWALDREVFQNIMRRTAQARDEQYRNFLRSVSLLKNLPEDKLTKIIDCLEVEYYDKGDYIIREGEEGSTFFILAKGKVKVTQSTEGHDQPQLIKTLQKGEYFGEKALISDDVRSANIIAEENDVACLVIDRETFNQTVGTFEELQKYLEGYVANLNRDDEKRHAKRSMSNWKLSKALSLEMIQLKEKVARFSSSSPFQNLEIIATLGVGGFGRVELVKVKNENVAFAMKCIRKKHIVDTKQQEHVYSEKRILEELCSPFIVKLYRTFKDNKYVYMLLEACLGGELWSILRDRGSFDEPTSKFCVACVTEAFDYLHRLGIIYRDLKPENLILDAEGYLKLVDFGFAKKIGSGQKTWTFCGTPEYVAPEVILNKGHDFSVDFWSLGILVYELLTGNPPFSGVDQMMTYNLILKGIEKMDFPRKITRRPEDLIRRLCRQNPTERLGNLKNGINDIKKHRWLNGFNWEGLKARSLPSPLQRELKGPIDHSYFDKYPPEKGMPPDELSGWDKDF

[6] = target: T2, Mitogen-activated protein kinase kinase kinase 3 (Homo sapiens) (UniProt Q99759); test: MAP3K3 Invitrogen selectivity data (BI); conditions: Compound concentration 3.0 uM
T2 sequence (whole entry): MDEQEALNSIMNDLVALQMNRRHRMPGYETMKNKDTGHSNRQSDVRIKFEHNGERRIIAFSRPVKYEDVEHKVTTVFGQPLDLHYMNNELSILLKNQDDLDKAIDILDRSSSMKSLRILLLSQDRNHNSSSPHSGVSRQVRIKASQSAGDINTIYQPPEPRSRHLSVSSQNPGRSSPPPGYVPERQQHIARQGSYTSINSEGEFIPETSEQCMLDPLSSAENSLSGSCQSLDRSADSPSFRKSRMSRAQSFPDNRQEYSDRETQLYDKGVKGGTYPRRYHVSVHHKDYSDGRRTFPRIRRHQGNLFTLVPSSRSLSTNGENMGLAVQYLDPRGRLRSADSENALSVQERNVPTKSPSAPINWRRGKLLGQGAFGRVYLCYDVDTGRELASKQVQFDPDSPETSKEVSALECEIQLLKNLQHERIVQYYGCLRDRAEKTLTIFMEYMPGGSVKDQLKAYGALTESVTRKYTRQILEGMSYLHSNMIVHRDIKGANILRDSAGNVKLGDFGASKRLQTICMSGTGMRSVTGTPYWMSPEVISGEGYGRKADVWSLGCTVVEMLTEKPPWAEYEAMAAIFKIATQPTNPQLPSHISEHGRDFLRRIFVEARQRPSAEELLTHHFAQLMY

[7] = target: T3, Alpha-2A adrenergic receptor (Homo sapiens) (UniProt P08913); test: ALPHA2A/H Eurofins-Panlabs selectivity data (BI); conditions: Compound concentration 10.0 uM
T3 sequence (whole entry): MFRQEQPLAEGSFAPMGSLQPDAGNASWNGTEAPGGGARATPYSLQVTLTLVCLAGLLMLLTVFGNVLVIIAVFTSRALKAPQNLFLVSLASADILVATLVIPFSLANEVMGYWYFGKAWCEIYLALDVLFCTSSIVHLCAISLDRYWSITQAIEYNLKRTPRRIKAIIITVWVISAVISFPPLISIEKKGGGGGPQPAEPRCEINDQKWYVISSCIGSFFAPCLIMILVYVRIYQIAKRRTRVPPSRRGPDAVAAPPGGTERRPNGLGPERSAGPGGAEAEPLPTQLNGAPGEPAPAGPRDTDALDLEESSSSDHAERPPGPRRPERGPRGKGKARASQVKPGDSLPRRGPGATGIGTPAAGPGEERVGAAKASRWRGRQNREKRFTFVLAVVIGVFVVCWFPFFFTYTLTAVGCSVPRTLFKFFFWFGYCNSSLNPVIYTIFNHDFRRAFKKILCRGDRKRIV

[8] = target: T4, Serine/threonine-protein kinase 4 (Homo sapiens) (UniProt Q13043); test: STK4 Invitrogen selectivity data (BI); conditions: Compound concentration 3.0 uM
T4 sequence (whole entry): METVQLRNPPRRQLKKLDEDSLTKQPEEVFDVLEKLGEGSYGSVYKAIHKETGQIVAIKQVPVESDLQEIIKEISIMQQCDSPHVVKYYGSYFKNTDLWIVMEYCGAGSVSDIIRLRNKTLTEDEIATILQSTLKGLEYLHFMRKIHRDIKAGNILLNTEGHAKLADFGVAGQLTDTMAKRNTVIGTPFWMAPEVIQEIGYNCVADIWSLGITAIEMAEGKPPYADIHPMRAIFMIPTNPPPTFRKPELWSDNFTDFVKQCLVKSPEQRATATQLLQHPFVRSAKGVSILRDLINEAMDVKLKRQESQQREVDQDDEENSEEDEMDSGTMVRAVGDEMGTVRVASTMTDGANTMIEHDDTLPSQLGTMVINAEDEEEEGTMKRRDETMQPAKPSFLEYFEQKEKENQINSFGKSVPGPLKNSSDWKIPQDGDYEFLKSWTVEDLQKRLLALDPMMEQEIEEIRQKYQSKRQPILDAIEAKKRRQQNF

[9] = target: Phosphatidylinositol 4-phosphate 3-kinase C2 domain-containing subunit alpha (Homo sapiens) (UniProt O00443); test: PIK3C2A Invitrogen selectivity data (BI); conditions: Compound concentration 3.0 uM
[10] = target: PI3-kinase p110-alpha/p85-alpha (Homo sapiens) (UniProt P27986+P42336); test: PIK3CAPIK3R1 Invitrogen selectivity data (BI); format: protein-complex assay; conditions: Compound concentration 3.0 uM

Sequence of Mitogen-activated protein kinase kinase kinase 14 (Homo sapiens) (Q99558 whole entry, looked up): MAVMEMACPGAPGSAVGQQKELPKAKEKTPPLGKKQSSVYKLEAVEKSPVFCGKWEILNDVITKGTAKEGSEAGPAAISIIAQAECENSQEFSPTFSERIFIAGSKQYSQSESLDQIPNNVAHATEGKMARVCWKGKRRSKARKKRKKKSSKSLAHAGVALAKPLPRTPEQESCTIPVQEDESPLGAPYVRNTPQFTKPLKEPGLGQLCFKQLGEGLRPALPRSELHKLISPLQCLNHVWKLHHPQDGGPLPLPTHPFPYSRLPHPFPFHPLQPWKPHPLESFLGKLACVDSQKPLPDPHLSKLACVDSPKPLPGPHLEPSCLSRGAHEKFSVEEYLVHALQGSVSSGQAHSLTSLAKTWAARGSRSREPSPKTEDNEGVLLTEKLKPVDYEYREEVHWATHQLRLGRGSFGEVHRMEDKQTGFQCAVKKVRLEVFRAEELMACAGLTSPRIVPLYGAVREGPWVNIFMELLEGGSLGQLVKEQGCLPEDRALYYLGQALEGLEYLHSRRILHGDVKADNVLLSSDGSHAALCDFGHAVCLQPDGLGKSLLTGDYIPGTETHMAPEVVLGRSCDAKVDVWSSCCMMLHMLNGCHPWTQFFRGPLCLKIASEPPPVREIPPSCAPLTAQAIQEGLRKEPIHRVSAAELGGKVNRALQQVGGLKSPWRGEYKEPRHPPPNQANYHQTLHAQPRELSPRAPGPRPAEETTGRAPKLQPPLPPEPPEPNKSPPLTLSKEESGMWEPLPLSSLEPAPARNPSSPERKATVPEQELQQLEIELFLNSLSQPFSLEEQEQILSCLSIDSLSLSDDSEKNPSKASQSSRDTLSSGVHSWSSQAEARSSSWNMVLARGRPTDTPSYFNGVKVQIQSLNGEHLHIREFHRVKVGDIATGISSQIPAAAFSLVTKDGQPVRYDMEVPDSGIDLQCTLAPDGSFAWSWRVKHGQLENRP
Sequence of Tyrosine-protein kinase ABL1 (Homo sapiens) (P00519 whole entry): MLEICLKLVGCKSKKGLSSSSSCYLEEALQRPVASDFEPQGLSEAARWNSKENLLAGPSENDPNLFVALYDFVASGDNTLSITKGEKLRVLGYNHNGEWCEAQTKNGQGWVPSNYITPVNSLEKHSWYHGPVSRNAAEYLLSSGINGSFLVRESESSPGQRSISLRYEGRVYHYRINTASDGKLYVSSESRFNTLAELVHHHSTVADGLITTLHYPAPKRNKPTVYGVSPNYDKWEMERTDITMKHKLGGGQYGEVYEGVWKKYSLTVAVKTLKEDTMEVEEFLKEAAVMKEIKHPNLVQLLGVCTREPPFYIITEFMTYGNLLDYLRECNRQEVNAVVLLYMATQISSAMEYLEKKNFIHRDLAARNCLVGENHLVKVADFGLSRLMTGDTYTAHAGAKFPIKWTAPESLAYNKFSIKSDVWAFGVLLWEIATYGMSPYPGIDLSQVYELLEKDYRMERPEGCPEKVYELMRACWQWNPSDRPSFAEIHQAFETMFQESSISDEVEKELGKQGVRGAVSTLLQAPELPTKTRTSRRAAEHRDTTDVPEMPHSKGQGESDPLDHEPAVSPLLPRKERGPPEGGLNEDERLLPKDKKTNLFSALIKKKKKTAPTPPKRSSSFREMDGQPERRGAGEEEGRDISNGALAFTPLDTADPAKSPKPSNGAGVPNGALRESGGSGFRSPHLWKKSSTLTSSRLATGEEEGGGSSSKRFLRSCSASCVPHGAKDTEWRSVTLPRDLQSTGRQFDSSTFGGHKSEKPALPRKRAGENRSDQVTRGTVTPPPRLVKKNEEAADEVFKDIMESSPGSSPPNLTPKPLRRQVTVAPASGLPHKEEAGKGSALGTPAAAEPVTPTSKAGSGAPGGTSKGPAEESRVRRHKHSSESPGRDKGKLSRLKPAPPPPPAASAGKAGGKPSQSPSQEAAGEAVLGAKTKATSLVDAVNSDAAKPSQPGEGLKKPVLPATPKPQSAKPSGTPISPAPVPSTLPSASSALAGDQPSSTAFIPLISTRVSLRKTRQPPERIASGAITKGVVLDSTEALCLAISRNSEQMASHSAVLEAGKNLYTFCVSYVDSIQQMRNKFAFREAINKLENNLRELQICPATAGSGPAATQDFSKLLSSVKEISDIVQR
Sequence of Histamine H3 receptor (Homo sapiens) (Q9Y5N1 whole entry): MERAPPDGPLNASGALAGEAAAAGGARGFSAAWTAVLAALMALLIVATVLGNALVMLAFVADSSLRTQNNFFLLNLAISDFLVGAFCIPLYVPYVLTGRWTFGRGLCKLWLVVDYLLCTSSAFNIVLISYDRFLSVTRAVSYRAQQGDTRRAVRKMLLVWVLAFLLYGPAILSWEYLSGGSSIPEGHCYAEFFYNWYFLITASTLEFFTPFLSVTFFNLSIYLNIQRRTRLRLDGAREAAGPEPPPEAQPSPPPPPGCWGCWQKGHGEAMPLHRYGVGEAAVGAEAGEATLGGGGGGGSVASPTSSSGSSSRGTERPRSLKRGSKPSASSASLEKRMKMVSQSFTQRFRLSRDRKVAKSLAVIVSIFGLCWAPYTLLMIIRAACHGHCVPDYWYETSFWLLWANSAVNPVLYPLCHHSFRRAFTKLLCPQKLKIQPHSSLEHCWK
Sequence of Phosphatidylinositol 4-phosphate 3-kinase C2 domain-containing subunit alpha (Homo sapiens) (O00443 whole entry, the tested form may be a part): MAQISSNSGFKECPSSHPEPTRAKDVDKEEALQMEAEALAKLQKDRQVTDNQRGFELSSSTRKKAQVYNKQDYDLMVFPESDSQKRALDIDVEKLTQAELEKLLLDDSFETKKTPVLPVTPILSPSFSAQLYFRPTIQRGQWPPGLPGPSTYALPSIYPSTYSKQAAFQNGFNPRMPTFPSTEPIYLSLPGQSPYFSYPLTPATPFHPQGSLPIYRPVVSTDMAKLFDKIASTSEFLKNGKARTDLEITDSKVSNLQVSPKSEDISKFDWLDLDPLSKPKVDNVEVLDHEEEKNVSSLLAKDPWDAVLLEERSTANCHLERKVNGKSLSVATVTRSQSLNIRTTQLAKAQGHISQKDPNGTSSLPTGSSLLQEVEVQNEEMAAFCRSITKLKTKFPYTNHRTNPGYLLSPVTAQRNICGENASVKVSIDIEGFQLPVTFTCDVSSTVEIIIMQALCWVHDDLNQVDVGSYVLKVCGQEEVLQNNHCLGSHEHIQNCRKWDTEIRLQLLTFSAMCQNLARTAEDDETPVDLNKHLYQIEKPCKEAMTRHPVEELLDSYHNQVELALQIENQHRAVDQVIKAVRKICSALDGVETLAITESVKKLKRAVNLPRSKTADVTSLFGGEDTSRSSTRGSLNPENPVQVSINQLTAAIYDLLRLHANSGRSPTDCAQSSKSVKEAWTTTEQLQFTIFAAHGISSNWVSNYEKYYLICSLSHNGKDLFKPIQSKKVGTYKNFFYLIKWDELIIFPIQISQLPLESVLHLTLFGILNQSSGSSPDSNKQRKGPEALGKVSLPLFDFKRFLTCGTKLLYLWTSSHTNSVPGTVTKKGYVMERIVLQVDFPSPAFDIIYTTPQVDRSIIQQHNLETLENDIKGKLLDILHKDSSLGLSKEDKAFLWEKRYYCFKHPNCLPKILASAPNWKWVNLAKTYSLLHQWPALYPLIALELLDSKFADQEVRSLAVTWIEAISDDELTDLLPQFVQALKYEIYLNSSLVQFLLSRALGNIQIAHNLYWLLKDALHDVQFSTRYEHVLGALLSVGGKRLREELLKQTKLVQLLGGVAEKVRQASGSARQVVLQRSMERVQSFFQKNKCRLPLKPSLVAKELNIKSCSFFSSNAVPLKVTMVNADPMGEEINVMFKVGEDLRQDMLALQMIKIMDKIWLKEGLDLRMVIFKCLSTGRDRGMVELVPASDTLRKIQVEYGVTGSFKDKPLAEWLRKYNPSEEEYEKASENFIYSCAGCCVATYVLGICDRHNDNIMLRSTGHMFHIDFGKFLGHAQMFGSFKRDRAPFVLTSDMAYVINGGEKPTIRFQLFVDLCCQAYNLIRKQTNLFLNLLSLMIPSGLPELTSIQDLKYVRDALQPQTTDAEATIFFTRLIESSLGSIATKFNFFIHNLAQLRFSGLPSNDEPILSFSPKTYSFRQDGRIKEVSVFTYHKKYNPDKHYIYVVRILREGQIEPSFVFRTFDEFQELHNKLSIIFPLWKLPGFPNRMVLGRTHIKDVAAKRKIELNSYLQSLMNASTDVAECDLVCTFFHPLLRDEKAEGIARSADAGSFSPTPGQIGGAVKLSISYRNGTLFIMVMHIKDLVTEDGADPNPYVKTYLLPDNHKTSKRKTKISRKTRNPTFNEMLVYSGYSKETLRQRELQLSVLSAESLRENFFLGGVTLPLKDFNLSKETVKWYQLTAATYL

CN(C)C(=O)Cn1cc(-c2nc(C3(c4ccc(-c5cnc(N)nc5)cc4)CC3)no2)cn1 [BI 0153]
inactive: inhibition [1] 6.54% | residual activity [2] 100% | residual activity [3] 83%

CN(C)C(=O)Cn1cc(-c2nc([C@@](C)(c3ccc(-c4cnc(N)nc4)cc3)C3CC3)no2)cn1 [BI 665915]
inactive: residual activity [4] 108% | residual activity [5] 92.5% | residual activity [6] 101% | residual activity [7] 105% | residual activity [8] 99% | residual activity [9] 104% | residual activity [10] 104%
